Test results published in patent US9050353B2, “Use of icariin and epimedium flavonoids containing icariin to treat diseases associated with myelin sheath lesion” (Xuanwu Hospital of Capital Medical University, priority 2010, dated 2015).

Tests used:
Format in all cases: in vivo
[1] = tested on: inflammatory cell infiltration in spinal cord tissues of EAE mice model; assay: Inflammatory cell infiltration in spinal cord, HE staining, EAE mice; conditions: positive control drug, dose not given, scale 0-4
Method: (§1) Preparation of mice model and administration: experimental autoimmune encephalomyelitis (EAE) mice model is an important tool for studying various human demyelinating diseases of nervous system. In the present experiment, the preparation of EAE mice model was performed by immunizing female C57BL/6J mice with myelin sheath oligodendroglial cell surface glycoprotein MOG35-55. That is, the mice were subcutaneously injected at dorsal part of spinal column with 0.2 mL of MOG35-55 antigen elixir, and 0.2 ml of bordetella pertussis solution was intraperitoneally injected at the time of immunization injection and 48 h thereafter, respectively. Icariin was intragastrically administered after the last injection of bordetella pertussis solution, for consecutive 3 weeks.
Experimental objective: the pathological changes of spinal cord in EAE model, especially inflammatory cell infiltration situations was assayed by hematoxylin-eosin (HE) staining test, and the intervention effects of […] on these pathological changes were observed.
Experimental method: the mice were anesthetized with 10% chloral hydrate on the 28th day of experiment, fixed by perfusion of 4% paraformaldehyde, spinal cord tissues were taken for making paraffin sections, section thickness […]. Stained with HE, observed under microscope, and scored according to the following standard: 0 score, absence of cell infiltration; 1 score, spinal meninge cell infiltration; 2 score, 1 to 4 small ranges of cell infiltration around vessels; 3 score, 5 or more small ranges of cell infiltration around vessels, or one or more accumulatively substantial large range of cell infiltration; 4 score, a large number of cell infiltration ranges accumulatively existing in 20% or more of white matter regions.

[2] = tested on: CNPase; assay: Spinal cord CNPase by Western blot, EAE mice; conditions: positive control drug, dose not given
Method: as §1
Experimental objective: myelin sheath is formed with prominences of oligodendroglial cells. CNPase, myelin basic protein (MBP) are marker proteins of mature oligodendroglial cells. The present experiment was to observe the expression of CNPase and MBP to represent the content of oligodendroglial cells in spinal cord of EAE model mice by Western blot method; and to study the effects of icariin on it.
Experimental method: the mice were anesthetized and sacrificed, fresh spinal cord was taken on ice, total protein was extracted by cleavage on ice, to prepare Western blot sample, added separately with CNPase, MBP primary antibodies and incubated, added with corresponding secondary antibodies, ECL colorated, Kodak film exposed. Pictures were analyzed with Image J software and standardized with β-actin.

[3] = tested on: CNPase; assay: CNPase positive cells of spinal cord lumbar intumescentia by immunohistochemical method, EAE rats; conditions: positive control drug, dose not given
Method: (§2) Preparation of rat model and administration: experimental autoimmune encephalomyelitis (EAE) model is an important tool for studying various human demyelinating diseases of nervous system. In the example, the preparation of EAE rat model was performed by multipoint immunizing female Lewis rats subcutaneously at tail root with a homogenate of spinal cord and cerebral gray matter of Guinea pig as well as complete Freund's adjuvant after emulsification. They were intragastrically administered with Epimedium flavanoids for 3 weeks.
(§3) Experimental objective: myelin sheath is formed with prominences of oligodendroglial cells. 2′3′-cyclic adenosine monophosphate-3′-phosphodiesterase (CNPase) is a marker protein of mature oligodendroglial cells. In this experiment, CNPase content of cerebral cortex in EAE rat model was measured by Western blot method, CNPase content of spinal cord lumbar intumescentia was measured by immunohistochemical method; and the effects of Epimedium flavanoids on these contents were observed.
Experimental method: the rats were anesthetized with 10% chloral hydrate on the 14th day of experiment, fixed by perfusion of 4% paraformaldehyde, spinal cord tissues were taken for frozen section. […] Pictures were analyzed using Image Pro plus5.0 software to count positive cells.

[4] = tested on: CNPase; assay: Cerebral cortex CNPase content by Western blot, EAE rats; conditions: positive control drug, dose not given
Method: as §2
as §3, with “2′3′-cyclic adenosine monophosphate-3′-phosphodiesterase (CNPase) is a marker protein of mature oligodendroglial cells.” left out
Experimental method: rats were anesthetized and sacrificed, cerebral cortex was taken, total protein was extracted by ice cleavage for making Western blot sample, added with CNPase primary antibody and incubated, added with corresponding secondary antibody, ECL colorated, Kodak film exposed. Pictures were analyzed by Image J software and standardized with β-actin (as internal reference).

CC(=O)OCC(=O)[C@@]1(O)CC[C@H]2[C@@H]3CCC4=CC(=O)C=C[C@]4(C)[C@H]3C(=O)C[C@@]21C [prednisone acetate]
Inflammatory cell infiltration (HE staining score) [1]: 1.05 ± 0.13
CNPase/actin Integration grey level [2]: 1.20 ± 0.01
CNPase positive cell count [3]: 1378.2 ± 125.4
CNPase/actin Integration grey level [4]: 1.33 ± 0.06
